Experimental data from US4731377A, “Antitumor cyclic peroxides” (Harbor Branch Oceanographic Institute, Inc., priority 1986, dated 1988).
≈ marks a conversion by molar mass, not a printed value.

Test system: P-388 mouse leukemia cells
Experiment: P388 mouse leukemia cell cytotoxicity assay (24-well plate screening / tube assay)
Type: cell-based
Conditions: for concentration inhibiting cell growth relative to the concentration required for inhibition by chondrillin (composition 1): 50% inhibition stated for II/2 and III/3, P388 mouse leukemia cells; for IC50: P388, P-388 mouse leukemia cells, 48 hours incubation, 5% CO2, read-out: P388 IC50, Inhibiting concentration 50% of cell growth; for antitumor activity ranking among the compositions tested: Table 2, P388, result in words; for cytotoxic in vitro against P-388 murine leukemia cells: result in words
Source text: The following assay method was utilized to illustrate the antitumor effectiveness of the compositions of Formulae II - VI corresponding to compositions 2-5 of the examples. Data is also provided for the chondrillin composition (1) which has also been isolated according to the process of the invention.
388 MOUSE LEUKEMIA CELL CYTOXICITY ASSAY 24-WELL PLATE SCREENING ASSAY AND TUBE ASSAY PROTOCOL
Media--Dulbeccos with glucose and pyruvate (Biologos, Inc) with 10% horse serum, (Biologos, Inc) and 1.0 ug/ml gentamicin (Gibco).
Cells - P-388 mouse leukemia cells (American Type Culture Collection) in media at a concentration of 5×10^4 W cells/ml Sterile 24-well culture plates (Nunc) for screening or 12×75 mm glass culture tubes (Becton-Dickinson) for tube assay. Microdispenser with 1 to 5 ul increments (Drummond Scientific Co. Broomall PA).
Finnpipette with 5 to 50 μl increments and Finnpipette with 50 to 200 μl increments.
1. A sample of the composition to be assayed is added to each well or tube in an amount of from 200 ug/ml and 100 ug/ml for screening. For DDC of known active compounds use log concentrations from 100 ug/ml to 0.01 ug/ml for range-finding assay; when range has been determined, use five concentrations between highest and lowest active concentrations.
2. Add 2.0 ml of 5×10^4 cell suspension in media to each well or tube. Tubes are loosely covered with parafilm.
3 Incubate in 5% CO2 incubator 48 hours.
4. Visually read plates with inverted microscope, comparing with solvent control. Assign activity as follows:
Repeat all positive samples using tube assay.
5. For Tube assays--Mix tube well on vortex and remove 0.5 ml aliquot and add to 9.5 ml of diluent fluid (Isoton - Coulter) in Accuvette (Coulter) and mix well by inversion immediately before counting, taking care not to produce excessive bubbles. Count on Coulter Counter (Counter is set to count 0.5 ml of the solution; therefore counts may be converted to cell/ml in original assay tube by multiplying count by 40.
Positive control--Vinblastine or Vincristine in aqueous solution.
Always run a solvent control in duplicate in the last two wells of each plate or four tubes for each rack of 72 or less tubes. Also run four wells or tubes with media and cells only per run of plates or tubes. When using volumes of aqueous solutions greater than 200 μl, dry sample and bring up to desired concentration in media.
Compositions 1-5 of formulae I/1; II/2; III/3; IV/4; and V/5 are cytotoxic in vitro against P-388 murine leukemia cells.

## CC=CC=CCCCCCCC[C@]1(OC)C=C[C@@H](CC(=O)OC)OO1 (relative stereo) [Composition II/2]
  concentration inhibiting cell growth relative to the concentration required for inhibition by chondrillin (composition 1): 1%
  IC50: 0.05 µg/mL (≈ 0.142 µM)
  antitumor activity ranking among the compositions tested: greatest antitumor activity of the compositions tested
  cytotoxic in vitro against P-388 murine leukemia cells: cytotoxic

## CCCCCCCCCCCC[C@]1(OC)C=C[C@@H](CC(=O)OC)OO1 (relative stereo) [Composition III/3]
  concentration inhibiting cell growth relative to the concentration required for inhibition by chondrillin (composition 1): 1%
  IC50: 0.05 µg/mL (≈ 0.14 µM)
  antitumor activity ranking among the compositions tested: greatest antitumor activity of the compositions tested
  cytotoxic in vitro against P-388 murine leukemia cells: cytotoxic

## CC=CC=CCCCCCCCCC[C@]1(OC)C=C[C@@H](CC(=O)OC)OO1 (relative stereo) [Composition IV/4]
  concentration inhibiting cell growth relative to the concentration required for inhibition by chondrillin (composition 1): 2%
  IC50: 0.1 µg/mL (≈ 0.263 µM)
  cytotoxic in vitro against P-388 murine leukemia cells: cytotoxic

## CC=CCCCCCCCCC[C@]1(OC)C=C[C@@H](CC(=O)OC)OO1 (relative stereo) [Composition V/5]
  concentration inhibiting cell growth relative to the concentration required for inhibition by chondrillin (composition 1): 2%
  IC50: 0.1 µg/mL (≈ 0.282 µM)
  cytotoxic in vitro against P-388 murine leukemia cells: cytotoxic

## CCCCCCCCCCCCCCCCC1(OC)C=CC(CC(=O)OC)OO1 (stereo not shown) [Composition I/1, chondrillin, reference compound]
  IC50: 5 µg/mL (≈ 12.1 µM)
  cytotoxic in vitro against P-388 murine leukemia cells: cytotoxic
